# Source: patent publication US7101878B1 (Agouron Pharmaceuticals, Inc., priority 1998, dated 2006)
# pIC50: −log10 of the molar value.
# How the values were obtained:
# human GnRH receptor = molecular target: T1, human GnRH receptor (Homo sapiens, UniProt P30968); experiment: Radioligand binding, 125I-GnRH-A displacement, membranes of HEK 293 cells with human GnRH receptor; conditions: read-out: hGnRH IC50
# T1 construct: expressed in transfected cells; host or cells: HEK 293 (hGnRH-R/293, from Dr. Stuart Sealfon)
# T1 sequence (P30968 1-328): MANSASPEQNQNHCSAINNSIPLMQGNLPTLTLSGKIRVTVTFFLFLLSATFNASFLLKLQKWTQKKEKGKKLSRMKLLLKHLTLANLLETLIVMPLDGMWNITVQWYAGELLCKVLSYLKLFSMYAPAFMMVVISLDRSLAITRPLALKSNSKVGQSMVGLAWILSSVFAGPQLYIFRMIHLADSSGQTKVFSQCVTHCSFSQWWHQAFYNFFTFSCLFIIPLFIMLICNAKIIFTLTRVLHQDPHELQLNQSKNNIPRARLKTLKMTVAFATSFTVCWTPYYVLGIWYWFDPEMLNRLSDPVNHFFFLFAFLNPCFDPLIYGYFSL
# Summary of the method: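 After filtration and PBS washes, bound radioactivity was counted by scintillation and IC50 derived. Identical conditions applied for non-human receptors.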
# mouse GnRH receptor = molecular target: T2, mouse GnRH receptor (Mus musculus, UniProt Q01776); experiment: Radioligand binding, 125I-GnRH-A, 293 cells expressing mouse GnRH receptors; conditions: read-out: mGnRH IC50
# T2 construct: expressed in transfected cells; host or cells: 293 cells
# T2 sequence (Q01776 1-327): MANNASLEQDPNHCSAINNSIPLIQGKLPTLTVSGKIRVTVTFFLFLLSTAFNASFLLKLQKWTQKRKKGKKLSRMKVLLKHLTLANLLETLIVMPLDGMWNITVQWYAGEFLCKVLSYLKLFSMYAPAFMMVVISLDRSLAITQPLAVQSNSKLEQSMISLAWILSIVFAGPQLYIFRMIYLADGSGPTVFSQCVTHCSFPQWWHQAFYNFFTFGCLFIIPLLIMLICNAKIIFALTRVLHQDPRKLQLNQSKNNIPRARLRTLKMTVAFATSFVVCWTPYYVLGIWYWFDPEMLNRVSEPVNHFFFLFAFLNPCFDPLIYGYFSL
# Summary of the method: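 Bound label captured on 0.1% polyethyleneimine-treated GF/C filters, washed three times with PBS, counted. IC50 derived; identical set-up for every species.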
# rat GnRH receptor = molecular target: T3, rat GnRH receptor (Rattus norvegicus, UniProt P30969); experiment: Radioligand binding, 125I-GnRH-A, rat pituitary membranes; parameters: membranes were prepared from rat pituitary; from tissue; host or cells: rat pituitary; conditions: read-out: rGnRH IC50
# T3 sequence (P30969 1-327): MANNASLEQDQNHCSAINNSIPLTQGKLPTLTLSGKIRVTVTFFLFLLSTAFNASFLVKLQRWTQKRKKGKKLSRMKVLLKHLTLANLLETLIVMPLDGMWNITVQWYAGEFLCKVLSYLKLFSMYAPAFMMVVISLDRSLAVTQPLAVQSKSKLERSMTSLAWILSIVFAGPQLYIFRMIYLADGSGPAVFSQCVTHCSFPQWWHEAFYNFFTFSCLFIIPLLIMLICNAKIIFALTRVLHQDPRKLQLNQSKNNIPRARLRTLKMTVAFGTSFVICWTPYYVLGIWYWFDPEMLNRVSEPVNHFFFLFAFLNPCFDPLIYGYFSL
# Procedure: All compounds were diluted in 1% DMSO (final assay concentration) in binding assay buffer. […] Reactions were terminated by rapid filtration onto 96-well Packard GF/C filters soaked in 0.1% polyethyleneimine. Filters were washed three times with PBS buffer, dried and counted on a Packard Topcount by liquid scintillation counting.
# Assay conditions were identical for assessing compound activities at other species. […] IC50 values for control peptides and test compounds were calculated utilizing GraphPad Prism™ software.
# The reaction mixture was vortexed and incubated for 1 min at room temperature. After one min, the mixture was vortexed and allowed to incubate for an additional minute. 2 ml of 0.5 M acetic acid/1% BSA was added to the reaction tube and the mixture was added to a C18 Sep-Pak cartridge. The cartridge was washed with subsequent washes of 5 ml H2O and 5 ml 0.5M acetic acid and then eluted with 5×1 ml of 60% CH3CN/40% 0.5M acetic acid. The eluate was diluted with 3× volume of HPLC buffer A (0.1% TFA in H2O) and loaded onto a C18 column. […] The radioactive fractions (750 ed/fraction) are collected into clean polypropylene tubes containing 100 μl of 10% BSA. Fractions were assessed for biological activity by radioligand binding.
Structure (SMILES),pIC50 (human GnRH receptor),pIC50 (mouse GnRH receptor),pIC50 (rat GnRH receptor)
Cc1cc2c(cc1Cc1ccc(C(=O)NCC3CCC(CN)CC3)o1)C(C)(C)CCC2(C)C (stereo not shown) [Compound 75],6.94,6.15,6.13
Cc1cc2c(cc1Cc1ccc(C(=O)NCC3CCC(CNCc4cc(=O)[nH]c(=O)[nH]4)CC3)o1)C(C)(C)CCC2(C)C (stereo not shown) [Compound 91],6.92,6.10,6.02
Cc1cc2c(cc1Cc1ccc(C(=O)N3CCC(Nc4nccc(NCC5CCCO5)n4)CC3)o1)C(C)(C)CCC2(C)C (stereo not shown) [Compound 94.2],5.52,–,5.80
Cc1cc2c(cc1Cc1ccc(C(=O)NCC3CCC(CNc4ncc(C#N)c(N)n4)CC3)o1)C(C)(C)CCC2(C)C (stereo not shown) [Compound 94],6.50,5.89,5.83
Cc1cc(C)nc(NS(=O)(=O)c2ccc(NC(=O)c3ccc(Cc4cc5c(cc4C)C(C)(C)CCC5(C)C)o3)cc2)n1 [Compound 97],5.77,–,5.77
COc1ccc(OC)c(NC(=O)c2ccc(Cc3cc4c(cc3C)C(C)(C)CCC4(C)C)o2)c1 [Compound 98],7.10,7.08,6.66
Cc1cc2c(cc1Cc1ccc(C(=O)NCC3CCCN(C(=O)OC(C)(C)C)C3)o1)C(C)(C)CCC2(C)C (stereo not shown) [Compound 100],6.23,–,5.22
Cc1cc2c(cc1Cc1ccc(C(=O)Nc3ccc(NC(=O)OC(C)(C)C)cc3)o1)C(C)(C)CCC2(C)C [Compound 101],< 5.00,–,< 5.00
Cc1cc2c(cc1Cc1ccc(C(=O)Nc3ccc(C(N)=O)cc3)o1)C(C)(C)CCC2(C)C [Compound 102],5.93,–,6.01
Cc1cc2c(cc1Cc1ccc(C(=O)NCC3CCN(c4ccnc(Cl)n4)CC3)o1)C(C)(C)CCC2(C)C [Compound 103],6.44,–,5.46
Cc1cc2c(cc1Cc1ccc(C(=O)NCC3CCCC(CNC(=O)C(F)(F)F)C3)o1)C(C)(C)CCC2(C)C (stereo not shown) [Compound 105],7.66,6.70,6.60
Cc1cc2c(cc1Cc1ccc(C(=O)NCc3cccc(CNc4ncccn4)c3)o1)C(C)(C)CCC2(C)C [Compound 106],5.70,–,6.29
Cc1cc2c(cc1Cc1ccc(C(=O)Nc3ccc(S(=O)(=O)Nc4ccc(Cl)nn4)cc3)o1)C(C)(C)CCC2(C)C [Compound 107],< 5.00,–,< 5.00
Cc1cc2c(cc1Cc1ccc(C(=O)NCC3CCC(CNc4ncccn4)CC3)o1)C(C)(C)CCC2(C)C (stereo not shown) [Compound 111],6.20,–,5.76
Cc1cc2c(cc1Cc1ccc(C(=O)NCc3ccc(CN)cc3)o1)C(C)(C)CCC2(C)C [Compound 113],6.47,–,6.52
Cc1cc2c(cc1Cc1ccc(C(=O)NCc3cccc(CNC(=O)C(F)(F)F)c3)o1)C(C)(C)CCC2(C)C [Compound 116],5.93,–,6.41
Cc1cc2c(cc1Cc1ccc(C(=O)NC3CCN(c4nccc(NCC5CCCO5)n4)C3)o1)C(C)(C)CCC2(C)C (stereo not shown) [Compound 117],5.74,–,5.52
COC(=O)c1cc(OC)c(OC)c(OC)c1NC(=O)c1ccc(Cc2cc3c(cc2C)C(C)(C)CCC3(C)C)o1 [Compound 118],6.42,–,6.37
Cc1cc2c(cc1Cc1ccc(C(=O)Nc3cncc(COC(=O)c4ccc(Cc5cc6c(cc5C)C(C)(C)CCC6(C)C)o4)c3)o1)C(C)(C)CCC2(C)C [Compound 120],< 5.00,–,< 5.00
COCCCNC(=O)c1ccc(Cc2cc3c(cc2C)C(C)(C)CCC3(C)C)o1 [Compound 122],6.14,–,5.90
COC(CCCNC(=O)c1ccc(Cc2cc3c(cc2C)C(C)(C)CCC3(C)C)o1)OC [Compound 125],6.87,5.98,6.25
Cc1cc2c(cc1Cc1ccc(C(=O)NCC3CCCC(CN)C3)o1)C(C)(C)CCC2(C)C (stereo not shown) [Compound 127],6.29,–,6.04
Cc1cc2c(cc1Cc1ccc(C(=O)NCc3ccc(F)cc3)o1)C(C)(C)CCC2(C)C [Compound 130],5.52,–,6.23
